Data on 8 compounds can be found in patent US8835644B2, “Broad spectrum benzothiophene-nitrothiazolide and other antimicrobials” (University of Virginia Patent Foundation, priority 2009, dated 2014).

In one test the test system is MRSA. As to the kind of experiment: MIC testing by broth dilution, MRSA. Type of test: cell-based, Staphylococcus aureus. An outline of the steps:
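Values are broth-dilution MICs, defined as the well showing no growth on visual reading after 24 h; the tested range was 32 to 0.06 μg/ml, in organism-specific media (LB, Trypticase Soy, Brain Heart Infusion). The C. difficile entries come instead from anaerobic Kirby-Bauer disk zones, normalised to NTZ.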
Background: Broth dilution looks for growth in wells or tubes with falling amounts of substance.

The test system of test [1] is PFOR (pyruvate ferredoxin oxidoreductase). The test can be described thus: Direct PFOR enzyme assay. Type of test: biochemical. As to the method: Representative compounds of the invention were tested in a series of assays against a series of organisms as described above. […] The organisms tested include, C. difficile, H. pylori, C. jejuni, MRSA, S. epidermidis, and E. coli. S. epidermidis and E. coli were tested in the plank and biofilm assay. A disk diffusion assay was also used for C. difficile. Direct PFOR enzyme assays were also performed. All analogues and derivatives were not tested on every organism in every type of assay (the “-” in each table means that it was not tested).

The next test deals with C. difficile. The test can be described thus: Disk diffusion (Kirby Bower), C. difficile. The test is classed as cell-based, Clostridium difficile. Particulars: for Disk Diff (%) C. difficile: Nitazoxanide = 100; for Disk Diffusion (%) C. difficile: zone of inhibited growth as relative ratio to the zone for NTZ. An outline of the steps: (§1)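 Compounds were diluted serially from 32 μg/ml to 0.06 in medium holding a standard inoculum, then visually scored at 24 h, and the lowest well without growth was recorded. Media were LB for E. coli, Trypticase Soy for S. epidermidis and Brain Heart Infusion for C. jejuni. C. difficile zones were measured anaerobically relative to NTZ.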
In general terms: A growth-free zone around the sample is the usual read-out of agar diffusion tests.

The next test concerns C. jejuni. As to the kind of experiment: MIC testing by broth dilution, C. jejuni. The test is classed as cell-based, Campylobacter jejuni. Put shortly:
as §1

The test system of a further test is E. coli. The test can be described thus: MIC testing by broth dilution, E. coli plank. Type of test: cell-based, Escherichia coli. Put shortly: as §1
For another test, the system named is H. pylori. As to the kind of experiment: MIC testing by broth dilution, H. pylori. The test is classed as cell-based, Helicobacter pylori. An outline of the steps: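 Broth dilution MIC determination against H. pylori: a standard inoculum in 100 microliters of Brain Heart Infusion medium was placed in 96 well microplates. Test compounds began at 32 μg/ml in 200 microliters in well one and were serially diluted over a 32 to 0.06 range. After 24 h, plates were scored by eye and the first well without growth was recorded as the MIC.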

In another test the test system is S. epidermidis. The test can be described thus: MIC testing by broth dilution, S. epidermidis plank. The test is classed as cell-based, Staphylococcus epidermidis. Put shortly: as §1
[2] abbreviates: broth dilution, Trypticase Soy, 24 h, read-out: MIC (μM) MRSA.
Where [3] appears, read: broth dilution, Brain Heart Infusion, 24 h, read-out: MIC (μM) C. jejuni.
Where [4] appears, read: broth dilution, LB medium, 24 h, read-out: MIC (μM) E. coli Plank.
[5] abbreviates: broth dilution, Brain Heart Infusion, 24 h, read-out: MIC (μM) H. pylori.
The mark [6] stands for this setting: broth dilution, Trypticase Soy, 24 h, read-out: MIC (μM) S. epidermidis Plank.
[7] abbreviates: Campylobacter jejuni, 24 h, read-out: MIC (μM) C. jejuni.
Where [8] appears, read: Escherichia coli, 24 h, read-out: MIC (μM) E. coli Plank.
The mark [9] stands for this setting: Helicobacter pylori, 24 h, read-out: MIC (μM) H. pylori.
Where [10] appears, read: 2-amino-3,5-dinitrothiophene analogues table, read-out: MIC MRSA.
Setting [11] is: * biphasic initial inhibition followed by uninhibited rate, ** caused some precipitant in extract.
Where [12] appears, read: 2-amino-3,5-dinitrothiophene analogues table, read-out: MIC C. jejuni.
[13] abbreviates: 2-amino-3,5-dinitrothiophene analogues table, read-out: MIC H. pylori.
The mark [14] stands for this setting: planktonic, 2-amino-3,5-dinitrothiophene analogues table, read-out: MIC S. epidermidis Plank.

Structures are written as SMILES. In brackets after ≈: the same amount, converted by molar mass. Where two headings read alike, the source gives them in different places. Marks after values point to notes of the source that are not given here.

As usually defined, the MIC is the least concentration at which growth counts as inhibited.

Regarding `O=C(Nc1ncc([N+](=O)[O-])s1)c1ccsc1` [VPC16a1008], the MIC in the test on MRSA (Thiophene analogues table, read-out: MIC MRSA) was determined as 23.5 µM (≈ 6 µg/mL); with C. jejuni (Thiophene analogues table, read-out: MIC C. jejuni), 5.9 µM (≈ 1.51 µg/mL); with E. coli (planktonic, Thiophene analogues table, read-out: MIC E. coli Plank), 125.4 µM (≈ 32 µg/mL); in the test on H. pylori (Thiophene analogues table, read-out: MIC H. pylori) it was 0.7 µM (≈ 0.179 µg/mL); in the test on S. epidermidis (planktonic, Thiophene analogues table, read-out: MIC S. epidermidis Plank), 15.7 µM (≈ 4.01 µg/mL). The “PFOR inhibition relative to nitazoxanide (=100)” value in test [1] (Thiophene analogues table) was found to be 96%. Also, the “Disk Diff (%) C. difficile” value in the test on C. difficile (Thiophene analogues table) came out at 100%.

As for `O=C(Nc1ncc([N+](=O)[O-])s1)c1cc(C(F)(F)F)cc(C(F)(F)F)c1` [VPC16a1039], the MIC was 2.6 µM (≈ 1 µg/mL) in the test with MRSA (setting [2]); 41.5 µM (≈ 16 µg/mL) in the test on C. jejuni (setting [3]); 83.1 µM (≈ 32 µg/mL) in the test on E. coli (setting [4]); 5.2 µM (≈ 2 µg/mL) in the test on H. pylori (setting [5]); 1.9 µM (≈ 0.732 µg/mL) with S. epidermidis (setting [6]). Also, the “PFOR inhibition relative to nitazoxanide (=100)” value in test [1] is on record as 54* %. The “Disk Diffusion (%) C. difficile” value in the test with C. difficile worked out at 80%.

In the case of `O=C(Nc1ncc([N+](=O)[O-])s1)c1cc(C(F)(F)F)ccc1Cl` [VPC16a1040], the MIC in the test with MRSA (setting [2]) came out at 22.7 µM (≈ 7.98 µg/mL); in the test with C. jejuni (setting [3]), 17.1 µM (≈ 6.01 µg/mL); in the test with E. coli (setting [4]), 91.0 µM (≈ 32 µg/mL); in the test with H. pylori (setting [5]), 1.1 µM (≈ 0.387 µg/mL); in the test with S. epidermidis (setting [6]), 22.7 µM (≈ 7.98 µg/mL). Further, the “PFOR inhibition relative to nitazoxanide (=100)” value in test [1] is given as 68%. In addition, the “Disk Diffusion (%) C. difficile” value in the test with C. difficile came out at 90%.

With `O=C(Nc1ncc([N+](=O)[O-])s1)c1cccnc1F` [VPC16a1052, 2-Fluoro-N-(5-nitrothiazol-2-yl)nicotinamide], in test [1], the “PFOR inhibition relative to nitazoxanide (=100)” value was determined as 91%. Moreover, the “Disk Diffusion (%) C. difficile” value in the test on C. difficile turned out to be 100%. Also, the MIC with C. jejuni (setting [7]) was 7.5 µM (≈ 2.01 µg/mL); in the test with E. coli (setting [8]) it was 119 µM (≈ 32 µg/mL); in the test with H. pylori (setting [9]), 3.7 µM (≈ 0.992 µg/mL).

With `O=C(Nc1ncc([N+](=O)[O-])s1)c1ccc(Cl)c(C(F)(F)F)c1` [VPC16a1060], the “PFOR inhibition relative to nitazoxanide (=100)” value in test [1] is given as 63* %. Moreover, the “Disk Diffusion (%) C. difficile” value in the test on C. difficile worked out at 89%. The results for the MIC with C. jejuni (setting [7]), in the test with E. coli (setting [8]) and with H. pylori (setting [9]) were 2.8 µM (≈ 0.985 µg/mL), 91 µM (≈ 32 µg/mL) and 2.8 µM (≈ 0.985 µg/mL), respectively.

In the case of `O=C(Nc1ncc([N+](=O)[O-])s1)c1ccc(-c2ccc(F)cc2)o1` [VPC16a1104], the MIC in the test with MRSA (Furan analogues table, read-out: MIC MRSA) came to 96.0 µM (≈ 32 µg/mL); in the test on C. jejuni (Furan analogues table, read-out: MIC C. jejuni), 96.0 µM (≈ 32 µg/mL); in the test with H. pylori (Furan analogues table, read-out: MIC H. pylori), 1.0 µM (≈ 0.333 µg/mL); in the test with S. epidermidis (planktonic, Furan analogues table, read-out: MIC S. epidermidis Plank), 96.0 µM (≈ 32 µg/mL). The “PFOR inhibition relative to nitazoxanide (=100)” value in test [1] (Furan analogues table) is recorded as 81%.

With `O=C(Nc1sc([N+](=O)[O-])cc1[N+](=O)[O-])c1ccccc1` [VPC16b1090], the minimum inhibitory concentration (MIC) with MRSA (setting [10]) was 109.1 µM (≈ 32 µg/mL); in the test with C. jejuni (setting [12]) it was 0.9 µM (≈ 0.264 µg/mL); with E. coli (planktonic, 2-amino-3,5-dinitrothiophene analogues table, read-out: MIC E. coli Plank), 109.1 µM (≈ 32 µg/mL); in the test on H. pylori (setting [13]) it was 1.3 µM (≈ 0.381 µg/mL); in the test with S. epidermidis (setting [14]) it was 5.1 µM (≈ 1.5 µg/mL). In test [1] (setting [11]), the “PFOR inhibition relative to nitazoxanide (=100)” value is 100** %. Moreover, the “Disk Diff (%) C. difficile” value with C. difficile (2-amino-3,5-dinitrothiophene analogues table) was determined as 0%.

In the case of `O=C(Nc1sc([N+](=O)[O-])cc1[N+](=O)[O-])c1ccc(Br)o1` [VPC16b2023], the MIC in the test on MRSA (setting [10]) amounted to 33.1 µM (≈ 12 µg/mL); in the test with C. jejuni (setting [12]), 2.8 µM (≈ 1.01 µg/mL); with H. pylori (setting [13]), 2.1 µM (≈ 0.76 µg/mL); in the test on S. epidermidis (setting [14]) it was 88.4 µM (≈ 32 µg/mL). In addition, the “PFOR inhibition relative to nitazoxanide (=100)” value in test [1] (setting [11]) was 94** %.
